Experimental data as given in patent US20210137890A1, “DEUTERATED IMIDAZOLIDINEDIONE COMPOUNDS AND THEIR USES” (priority 2018, published 2021).
Entries after “also recorded” stand apart in the source; their conditions may differ. Like-named read-outs stand apart in the source and are kept apart here.

Tests used:
[1] = mouse, in vivo
[2] = Clinical pharmacokinetic study of HC-1119 (Stage A, plasma M0, M1, M2); conditions: steady state, 80 mg HC-1119
Description: Single dose biological sample collection: Subjects were given a single fasting dose on the first day of the study. Blood samples were collected before (−0.5˜0 h) and after administration 0.5, 0.75, 1, 2 h (±5 min), 4, 8, 12 h (±15 min), 24 h (±30 min, Day 2 before administration). Venous blood (3 mL) was collected, set in an anticoagulant tube (type of anticoagulant was based on established analytical test methods).
Continuous administration of biological samples collected: Blood sample collected on continuous administration Day 7, 21, 35, 42, 56, 70, 84 before administration, on Day 84 after administration 0.5, 0.75, 1, 2 h (±5 min), 4, 8, 12 h (±15 min), 24 h (±30 min, Day 85 before administration). Venous blood (3 mL) was collected, set in an anticoagulant tube (type of anticoagulant was based on established analytical test methods).
Sample Handling: Samples were centrifuged (about 3000 rpm for 10 minutes) to separate the plasma as soon as possible. Isolated plasma samples were stored in duplicate in plasma cryostat, with the tagged population's enrollment number, subject's initials, date and time of collection. Plasma samples were stored in −60° C.˜−80° C. freezer as soon as possible. One blood sample was retained at the research center and one blood sample was shipped to a specialist testing company for plasma drug concentration determination.

[3] = dog, in vivo, 90 mg/kg
[4] = tested on: serum PSA; conditions: mCRPC patients
Description: There were two (2) stages or arms to the study, Stage A and Stage B.
During Stage A, the dose escalation tolerance (or tolerability) study was conducted using the traditional rule-based 3+3 design. All subjects in Stage A were involved in pharmacokinetic studies. […]
Stage A: PSA was dynamically observed to assess the initial dose-effectiveness based on data from subjects in each dose group until the end of the 12-week trial period. Serum PSA test, safety evaluation (including blood, liver and kidney function, electrocardiogram, etc.) were performed at the 6th, 8th, 10th and 12th weeks of visit, and the trial ended at the 12th week of visit.
They show the percentage change in PSA levels for subjects in the study. In both figures, the vertical axis represents the percent change in PSA levels from the baseline and the horizontal axis (numbers that are in line with the “0%”) identifies individual patient or subject numbers.

[5] = molecular target: T1, AR (Homo sapiens, UniProt P10275); conditions: read-out: Ki for AR binding
T1 sequence (P10275 1-920): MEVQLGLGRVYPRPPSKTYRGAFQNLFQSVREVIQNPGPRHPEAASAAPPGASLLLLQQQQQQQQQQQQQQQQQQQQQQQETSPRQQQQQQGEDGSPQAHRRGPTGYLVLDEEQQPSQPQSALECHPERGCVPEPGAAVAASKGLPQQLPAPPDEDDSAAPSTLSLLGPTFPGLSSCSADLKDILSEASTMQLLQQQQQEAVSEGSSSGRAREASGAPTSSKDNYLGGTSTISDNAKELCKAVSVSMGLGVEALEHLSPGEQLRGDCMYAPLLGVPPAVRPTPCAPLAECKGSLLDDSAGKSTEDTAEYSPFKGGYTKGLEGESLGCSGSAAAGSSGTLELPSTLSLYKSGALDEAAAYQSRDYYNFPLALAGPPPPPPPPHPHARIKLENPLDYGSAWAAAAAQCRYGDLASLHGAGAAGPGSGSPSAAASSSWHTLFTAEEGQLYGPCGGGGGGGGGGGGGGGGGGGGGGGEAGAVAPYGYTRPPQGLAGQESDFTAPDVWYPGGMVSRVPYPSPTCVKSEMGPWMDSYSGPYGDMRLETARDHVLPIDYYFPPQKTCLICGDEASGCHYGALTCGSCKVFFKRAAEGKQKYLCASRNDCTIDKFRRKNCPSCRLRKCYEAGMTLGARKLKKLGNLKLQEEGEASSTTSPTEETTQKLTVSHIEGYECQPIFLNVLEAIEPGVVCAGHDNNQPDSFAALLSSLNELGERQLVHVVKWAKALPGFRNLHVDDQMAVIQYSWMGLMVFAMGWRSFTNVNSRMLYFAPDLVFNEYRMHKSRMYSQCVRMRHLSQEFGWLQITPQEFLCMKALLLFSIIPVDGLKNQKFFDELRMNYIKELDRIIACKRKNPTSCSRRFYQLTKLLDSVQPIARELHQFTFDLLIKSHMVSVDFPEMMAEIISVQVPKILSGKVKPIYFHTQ

[6] = tested on: LNCaP; assay: LNCaP growth inhibition; format: cell-based
[7] = Brain penetration of parental drug and metabolites in mice (PD study); conditions: mouse, po, 10 mg/kg
[8] = Phase I dose escalation study, human; cited from earlier work
[9] = In vitro activity of metabolites M1 and M2; conditions: in vitro experiments

SMILES: [2H]C([2H])([2H])NC(=O)c1ccc(N2C(=S)N(c3ccc(C#N)c(C(F)(F)F)c3)C(=O)C2(C)C)cc1F [HC-1119, 4-{3-[4-cyano-3-(trifluoromethyl)phenyl]-5,5-dimethyl-4-oxo-2-thio-1-imidazolidinyl}-2-fluoro-N-trideuteromethylbenzamide]
- Brain ([1]; po, 10 mg/kg): 1393 ng/g
- Plasma ([1]; po, 10 mg/kg): 4686 ng/mL
- C24 h for the combination of the active drugs (M0+M2) [2]: close to that of 160 mg enzalutamide
- adult equivalent dose (HED) calculated from HNSTD [3]: 2916 mg/day
- maximum decrease in PSA levels by more than 50% from the baseline (maximum response rate) ([4]; 40 mg dose group): 66.7%
- rate of decrease in PSA levels by more than 50% from the baseline (response rate at week 12) ([4]; 40 mg dose group): 66.7%
- maximum decrease in PSA levels by more than 50% from the baseline (maximum response rate) ([4]; 80 mg dose group): 88.8%
- rate of decrease in PSA levels by more than 50% from the baseline (response rate at week 12) ([4]; 80 mg dose group): 75%
- maximum decrease in PSA levels by more than 50% from the baseline (maximum response rate) ([4]; 160 mg dose group): 50%
- rate of decrease in PSA levels by more than 50% from the baseline (response rate at week 12) ([4]; 160 mg dose group): 57.1%
- maximum decrease in PSA levels by more than 50% from the baseline (maximum response rate) ([4]; 200 mg dose group): 100%
- rate of decrease in PSA levels by more than 50% from the baseline (response rate at week 12) ([4]; 200 mg dose group): 33.3%

SMILES: CC1(C)C(=O)N(c2ccc(C#N)c(C(F)(F)F)c2)C(=S)N1c1ccc(C(N)=O)c(F)c1 [M2]
- crossing of the blood-brain barrier (BBB) [1]: more readily cross the blood-brain barrier
- Ki [5]: 0.057 µM
- IC50 [6]: 0.00013 µM

SMILES: CNC(=O)c1ccc(N2C(=S)N(c3ccc(C#N)c(C(F)(F)F)c3)C(=O)C2(C)C)cc1F [enzalutamide]
- concentration at 24 h ([7]; brain): 647 ng/g
- Kp at 24 h ([7]; brain/plasma): 0.31
- concentration at 24 h ([7]; plasma): 2100 ng/mL
- maximum tolerable dosage (MTD) [8]: 240 mg/day

SMILES: CC1(C)C(=O)N(c2ccc(C#N)c(C(F)(F)F)c2)C(=S)N1c1ccc(C(=O)O)c(F)c1 [M1]
- in vitro activity [9]: inactive; also recorded: not active
